In one test the target is human orexin 2 receptor (Homo sapiens (Human), UniProt O43614). In words: Human orexin 2 receptor radioligand binding. The conditions noted are these: human orexin 2 receptor; averages of 2-20 runs; read-out: hOX2 Ki. Put shortly:
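Ki derived from one-site competition IC50 using predetermined Kd of [3H]-EMPA, triplicate points, 2-20 runs averaged. Binding done on homogenized HEK293 cells stably expressing human orexin 2 receptor, DMSO ≤0.1%, with 10 μM almorexant defining nonspecific binding; filtered, washed, scintillation counted.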

Another test concerns the target rat orexin 1 receptor (Rattus norvegicus, UniProt P56718). The test can be described thus: Rat orexin 1 receptor radioligand binding. The conditions noted are these: rat orexin 1 receptor; averages of 2-20 runs; read-out: rOX1 Ki. The method in brief: (§1)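 Ki values derive from one-site competition IC50s corrected with the radioligand's predetermined Kd, triplicates per run, averaged over 2-20 runs. Cell homogenates (rat or human OX1R) compete against [^3H]-thiazolyl-oxadiazolyl-pyrrolidine methanone in PBS; 10 μM almorexant sets nonspecific binding; scintillation counting after washing.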

The target of a further test is human orexin 1 receptor (Homo sapiens, UniProt O43613). In words: Human orexin 1 receptor radioligand binding. The conditions noted are these: human orexin 1 receptor; averages of 2-20 runs; read-out: hOX1 Ki. Put shortly: as §1

The structures appear in SMILES notation. pKi: −log10 of the molar value.

Chain of human orexin 2 receptor (O43614 whole entry): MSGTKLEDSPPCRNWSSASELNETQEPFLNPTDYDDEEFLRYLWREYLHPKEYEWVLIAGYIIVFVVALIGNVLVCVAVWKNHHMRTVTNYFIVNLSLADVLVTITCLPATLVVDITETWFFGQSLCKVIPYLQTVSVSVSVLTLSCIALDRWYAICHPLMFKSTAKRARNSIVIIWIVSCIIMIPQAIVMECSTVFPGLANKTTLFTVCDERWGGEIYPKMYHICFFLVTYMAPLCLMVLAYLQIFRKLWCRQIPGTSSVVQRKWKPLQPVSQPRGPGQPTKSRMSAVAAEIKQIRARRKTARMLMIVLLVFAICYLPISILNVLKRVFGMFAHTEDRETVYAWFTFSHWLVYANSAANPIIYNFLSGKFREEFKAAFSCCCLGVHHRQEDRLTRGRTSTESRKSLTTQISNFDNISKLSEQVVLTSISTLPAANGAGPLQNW

The term pKi denotes −log10 of the Ki, conventionally taken in molar units. For the compound `Cc1ccc(O[C@@H]2C[C@H]3C[C@@H]2N(C(=O)c2cccc(F)c2-c2ncccn2)C3)nc1` [Example 101, (3-fluoro-2-(pyrimidin-2-yl)phenyl)((1S,4R,6R)-6-((5-methylpyridin-2-yl)oxy)-2-azabicyclo[2.2.1]heptan-2-yl)methanone], the pKi at human orexin 2 receptor was 6.15; on rat orexin 1 receptor it was 7.59; at human orexin 1 receptor, 7.96.

Consider `Cc1ccc(C(=O)N2C[C@H]3C[C@@H](Oc4ccc(Br)cn4)[C@@H]2C3)c(-n2nccn2)n1` [Example 105, ((1S,4R,6R)-6-((5-bromopyridin-2-yl)oxy)-2-azabicyclo[2.2.1]heptan-2-yl)(6-methyl-2-(2H-1,2,3-triazol-2-yl)pyridin-3-yl)methanone], for which the results for the negative-log Ki (pKi) at human orexin 2 receptor, at rat orexin 1 receptor and at human orexin 1 receptor were < 5.00, 6.92 and 6.47, respectively.

With `O=C(c1cccc(F)c1-n1nccn1)N1C[C@H]2C[C@@H](Oc3ccc(Br)cn3)[C@@H]1C2` [Example 106, ((1S,4R,6R)-6-((5-bromopyridin-2-yl)oxy)-2-azabicyclo[2.2.1]heptan-2-yl)(3-fluoro-2-(2H-1,2,3-triazol-2-yl)phenyl)methanone], the negative logarithm of the Ki (pKi) at human orexin 2 receptor is 6.36; on rat orexin 1 receptor, 8.52; at human orexin 1 receptor, 8.40.

On to `O=C(c1ccc(F)cc1-n1nccn1)N1C[C@H]2C[C@@H](Oc3ccc(Br)cn3)[C@@H]1C2` [Example 107, ((1S,4R,6R)-6-((5-bromopyridin-2-yl)oxy)-2-azabicyclo[2.2.1]heptan-2-yl)(4-fluoro-2-(2H-1,2,3-triazol-2-yl)phenyl)methanone], for which the negative-log Ki (pKi) at human orexin 2 receptor was 5.71; on rat orexin 1 receptor, 7.80; at human orexin 1 receptor, 7.59.

As for `O=C(c1cc(F)ccc1-n1nccn1)N1C[C@H]2C[C@@H](Oc3ccc(Br)cn3)[C@@H]1C2` [Example 108, ((1S,4R,6R)-6-((5-bromopyridin-2-yl)oxy)-2-azabicyclo[2.2.1]heptan-2-yl)(5-fluoro-2-(2H-1,2,3-triazol-2-yl)phenyl)methanone], the pKi at human orexin 2 receptor was 6.11; at rat orexin 1 receptor, 8.10; at human orexin 1 receptor, 7.51.

`O=C(c1c(F)cccc1-n1nccn1)N1C[C@H]2C[C@@H](Oc3ccc(Br)cn3)[C@@H]1C2` [Example 109, ((1S,4R,6R)-6-((5-bromopyridin-2-yl)oxy)-2-azabicyclo[2.2.1]heptan-2-yl)(2-fluoro-6-(2H-1,2,3-triazol-2-yl)phenyl)methanone]: the negative logarithm of the Ki (pKi) is 6.35 at human orexin 2 receptor, 8.22 at rat orexin 1 receptor and 8.30 at human orexin 1 receptor.

As for `O=C(c1ccc(F)cc1-c1ncccn1)N1C[C@H]2C[C@@H](Oc3ccc(Br)cn3)[C@@H]1C2` [Example 110, ((1S,4R,6R)-6-((5-bromopyridin-2-yl)oxy)-2-azabicyclo[2.2.1]heptan-2-yl)(4-fluoro-2-(pyrimidin-2-yl)phenyl)methanone], the pKi on human orexin 2 receptor was 5.92; at rat orexin 1 receptor, 8.22; on human orexin 1 receptor, 7.96.

As for `O=C(c1cc(F)ccc1-c1ncccn1)N1C[C@H]2C[C@@H](Oc3ccc(Br)cn3)[C@@H]1C2` [Example 111, ((1S,4R,6R)-6-((5-bromopyridin-2-yl)oxy)-2-azabicyclo[2.2.1]heptan-2-yl)(5-fluoro-2-(pyrimidin-2-yl)phenyl)methanone], the negative-log Ki (pKi) on human orexin 2 receptor was 6.34; at rat orexin 1 receptor it was 8.30; at human orexin 1 receptor, 8.30.

In the case of `O=C(c1ccccc1-n1nccn1)N1C[C@H]2C[C@@H](Oc3ccc(Cl)cn3)[C@@H]1C2` [Example 112, (2-(2H-1,2,3-triazol-2-yl)phenyl)((1S,4R,6R)-6-((5-chloropyridin-2-yl)oxy)-2-azabicyclo[2.2.1]heptan-2-yl)methanone], the negative logarithm of the Ki (pKi) was 6.34 on human orexin 2 receptor, 8.10 at rat orexin 1 receptor and 8.00 at human orexin 1 receptor.

The record behind these values is patent US9611277B2 (Janssen Pharmaceutica NV, priority 2013, dated 2017).
